Data as given in ChEMBL document CHEMBL3421530, “Azepinone-Containing Tetrapeptide Analogues of Melanotropin Lead to Selective hMC4R Agonists and hMC5R Antagonist” (ACS Med Chem Lett, 2015).

What was measured:
[1] = target: T1, Melanocyte-stimulating hormone receptor (Homo sapiens, UniProt Q01726); assay: Activity at human MC1 receptor expressed in HEK293 cells assessed as cAMP accumulation at 10 uM by luminescence counter relative to MT-II; format: functional, cell-based
Target sequence in this assay (Q01726 whole entry, looked up): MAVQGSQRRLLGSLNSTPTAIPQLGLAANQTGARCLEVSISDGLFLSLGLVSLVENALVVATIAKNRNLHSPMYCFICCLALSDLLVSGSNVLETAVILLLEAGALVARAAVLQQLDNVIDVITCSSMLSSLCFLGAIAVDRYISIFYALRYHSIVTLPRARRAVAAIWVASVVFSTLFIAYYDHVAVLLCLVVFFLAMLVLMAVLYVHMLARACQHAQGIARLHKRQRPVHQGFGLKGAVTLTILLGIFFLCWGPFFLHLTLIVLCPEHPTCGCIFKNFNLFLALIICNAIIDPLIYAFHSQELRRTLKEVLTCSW

Melanocortin receptor 3 [2] = target: T2, Melanocortin receptor 3 (Homo sapiens, UniProt P41968); assay: Activity at human MC3 receptor expressed in HEK293 cells assessed as cAMP accumulation at 10 uM by luminescence counter relative to MT-II; format: functional, cell-based
T2 sequence (P41968 whole entry): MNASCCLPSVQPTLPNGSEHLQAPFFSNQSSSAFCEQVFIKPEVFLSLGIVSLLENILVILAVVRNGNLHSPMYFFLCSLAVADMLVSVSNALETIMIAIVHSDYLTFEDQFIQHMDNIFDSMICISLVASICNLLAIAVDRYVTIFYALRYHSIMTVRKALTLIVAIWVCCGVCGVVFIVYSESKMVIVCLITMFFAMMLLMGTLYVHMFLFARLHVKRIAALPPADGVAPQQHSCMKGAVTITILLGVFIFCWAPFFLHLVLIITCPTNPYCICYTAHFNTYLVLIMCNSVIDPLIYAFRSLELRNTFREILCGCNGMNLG

Melanocortin receptor 3 [3] = target: T2, Melanocortin receptor 3; assay: Displacement of [125I]-NDP-alpha-MSH from human MC3 receptor expressed in HEK293 cells at 10 uM by gamma counting analysis; format: cell-based
Melanocortin receptor 4 [4] = target: T3, Melanocortin receptor 4 (Homo sapiens, UniProt P32245); assay: Displacement of [125I]-NDP-alpha-MSH from human MC4 receptor expressed in HEK293 cells at 10 uM by gamma counting analysis; format: cell-based
T3 sequence (P32245 whole entry): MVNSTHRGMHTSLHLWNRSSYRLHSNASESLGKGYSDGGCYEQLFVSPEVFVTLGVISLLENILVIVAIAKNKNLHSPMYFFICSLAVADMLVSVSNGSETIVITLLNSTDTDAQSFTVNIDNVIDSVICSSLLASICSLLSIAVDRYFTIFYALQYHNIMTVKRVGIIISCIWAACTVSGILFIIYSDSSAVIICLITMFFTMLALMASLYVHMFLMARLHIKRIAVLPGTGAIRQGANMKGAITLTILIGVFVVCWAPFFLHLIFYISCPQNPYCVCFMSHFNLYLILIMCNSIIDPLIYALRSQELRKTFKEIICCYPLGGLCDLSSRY

[5] = target: T1, Melanocyte-stimulating hormone receptor; assay: Displacement of [125I]-NDP-alpha-MSH from human MC1 receptor expressed in HEK293 cells at 10 uM by gamma counting analysis; format: cell-based
Target sequence in this assay (Q01726 whole entry, looked up): as the sequence (Q01726 whole entry, looked up) above

Melanocortin receptor 5 [6] = target: T4, Melanocortin receptor 5 (Homo sapiens, UniProt P33032); assay: Antagonist activity at human MC5 receptor expressed in HEK293 cells assessed as cAMP accumulation at 10 uM by luminescence counter relative to MT-II; format: functional, cell-based; set-up: scale not given: the % may be the effect or the level left
T4 sequence (P33032 whole entry): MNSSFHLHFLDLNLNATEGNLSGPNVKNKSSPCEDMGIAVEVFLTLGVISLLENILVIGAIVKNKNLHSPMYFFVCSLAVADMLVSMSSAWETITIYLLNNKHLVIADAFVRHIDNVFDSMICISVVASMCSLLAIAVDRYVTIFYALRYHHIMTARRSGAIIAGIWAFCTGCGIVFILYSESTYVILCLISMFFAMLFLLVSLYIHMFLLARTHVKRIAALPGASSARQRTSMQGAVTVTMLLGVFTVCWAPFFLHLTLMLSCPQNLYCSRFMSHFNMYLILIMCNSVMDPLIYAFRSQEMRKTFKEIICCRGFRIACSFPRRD

[7] = Retention time of the compound; format: physicochemical
[8] = target: T1, Melanocyte-stimulating hormone receptor; assay: Displacement of [125I]-NDP-alpha-MSH from human MC1 receptor expressed in HEK293 cells by gamma counting analysis; format: cell-based
Target sequence in this assay (Q01726 whole entry): as the sequence (Q01726 whole entry, looked up) above

Melanocortin receptor 4 [9] = target: T3, Melanocortin receptor 4; assay: Agonist activity at human MC4 receptor expressed in HEK293 cells assessed as cAMP accumulation by luminescence counter; format: functional, cell-based
[10] = target: T1, Melanocyte-stimulating hormone receptor; assay: Activity at human MC1 receptor expressed in HEK293 cells assessed as cAMP accumulation by luminescence counter; format: functional, cell-based
Target sequence in this assay (Q01726 whole entry): as the sequence (Q01726 whole entry, looked up) above

Melanocortin receptor 3 [11] = target: T2, Melanocortin receptor 3; assay: Activity at human MC3 receptor expressed in HEK293 cells assessed as cAMP accumulation by luminescence counter; format: functional, cell-based
Melanocortin receptor 5 [12] = target: T4, Melanocortin receptor 5; assay: Antagonist activity at human MC5 receptor expressed in HEK293 cells assessed as cAMP accumulation by luminescence counter; format: functional, cell-based
Melanocortin receptor 5 [13] = target: T4, Melanocortin receptor 5; assay: Displacement of [125I]-NDP-alpha-MSH from human MC5 receptor expressed in HEK293 cells by gamma counting analysis; format: cell-based
Melanocortin receptor 5 [14] = target: T4, Melanocortin receptor 5; assay: Displacement of [125I]-NDP-alpha-MSH from human MC5 receptor expressed in HEK293 cells at 10 uM by gamma counting analysis; format: cell-based
Melanocortin receptor 4 [15] = target: T3, Melanocortin receptor 4; assay: Displacement of [125I]-NDP-alpha-MSH from human MC4 receptor expressed in HEK293 cells by gamma counting analysis; format: cell-based
Melanocortin receptor 3 [16] = target: T2, Melanocortin receptor 3; assay: Displacement of [125I]-NDP-alpha-MSH from human MC3 receptor expressed in HEK293 cells by gamma counting analysis; format: cell-based
Melanocortin receptor 4 [17] = target: T3, Melanocortin receptor 4; assay: Agonist activity at human MC4 receptor expressed in HEK293 cells assessed as cAMP accumulation at 10 uM by luminescence counter relative to MT-II; format: functional, cell-based

SMILES | Activity [1] | Activity (Melanocortin receptor 3 [2]) | %max (Melanocortin receptor 3 [3]) | %max (Melanocortin receptor 4 [4]) | %max [5] | Activity (Melanocortin receptor 5 [6]) | Retention_time [7] | IC50 [8] | EC50 (Melanocortin receptor 4 [9]) | EC50 ([10]; read-out: EC50) | EC50 (Melanocortin receptor 3 [11]; read-out: EC50) | EC50 (Melanocortin receptor 5 [12]; hek293) | IC50 (Melanocortin receptor 5 [13]) | %max (Melanocortin receptor 5 [14]) | IC50 (Melanocortin receptor 4 [15]) | IC50 (Melanocortin receptor 3 [16]; read-out: IC50) | Activity (Melanocortin receptor 4 [17]) | other results
CC(=O)N[C@H]1Cn2nncc2CN([C@H](Cc2ccccc2)C(=O)N[C@@H](CCCNC(=N)N)C(=O)N[C@@H](Cc2c[nH]c3ccccc23)C(N)=O)C1=O | 100% | 20% | 55% | 80% | 60% | 0% | 10.43 min | 4540 nM | 203 nM | 750 nM | 55 nM | Not Active | 137 nM | 70% | 200 nM | 1000 nM | 80% | –
CC(=O)N[C@H]1Cc2ccccc2CN([C@H](Cc2ccccc2)C(=O)N[C@@H](CCCNC(=N)N)C(=O)N[C@@H](Cc2c[nH]c3ccccc23)C(N)=O)C1=O | 70% | 40% | 59% | 80% | 80% | 0% | 13.35 min | 594 nM | 227 nM | 1000 nM | 59 nM | Not Active | 37.3 nM | 75% | 220 nM | > 2000 nM | 80% | –
CC(=O)N[C@H]1Cc2c([nH]c3ccccc23)CN([C@H](Cc2ccccc2)C(=O)N[C@@H](CCCNC(=N)N)C(=O)N[C@@H](Cc2c[nH]c3ccccc23)C(N)=O)C1=O | 0% | 20% | – | 50% | 50% | 0% | 13.05 min | 1350 nM | 0.3 nM | – | 52 nM | Not Active | 636 nM | 80% | 447 nM | – | 51% | EC50 ([10]; hek293): Not Active; IC50 (Melanocortin receptor 3 [16]; hek293): Not Active
CC(=O)N[C@H]1Cc2c([nH]c3ccccc23)CN([C@H](Cc2ccc(F)cc2)C(=O)N[C@@H](CCCNC(=N)N)C(=O)N[C@@H](Cc2c[nH]c3ccccc23)C(N)=O)C1=O | 50% | 0% | 50% | 80% | 40% | 50% | 13.94 min | 258 nM | 13 nM | 226 nM | – | – | 167 nM | 80% | 6.5 nM | 5000 nM | 100% | EC50 (Melanocortin receptor 3 [11]; hek293): Not Active; EC50 (Melanocortin receptor 5 [12]; read-out: EC50): 4110 nM
CC(=O)N[C@H]1Cc2c([nH]c3ccccc23)CN([C@H](Cc2ccc(Br)cc2)C(=O)N[C@@H](CCCNC(=N)N)C(=O)N[C@@H](Cc2c[nH]c3ccccc23)C(N)=O)C1=O | 100% | 50% | 100% | 100% | 80% | 0% | 14.85 min | 300 nM | 0.3 nM | 700 nM | 2440 nM | Not Active | 70.3 nM | 100% | 200 nM | 100 nM | 80% | –
